According to publication PMC9571937, “Synthesis and Structure–Activity Relationship Studies of Pyrido [1,2-e]Purine-2,4(1H,3H)-Dione Derivatives Targeting Flavin-Dependent Thymidylate Synthase in Mycobacterium tuberculosis” (Molecules, 2022):
Like-named read-outs stand apart in the source and are kept apart here.

How the values were obtained:
[1] = system: ThyX; details: cited from earlier work
[2] = biological target: T1, Mtb ThyX (Mycobacterium tuberculosis, UniProt P9WG57); assay: M. tuberculosis ThyX NADPH oxidase assay; assay type: biochemical; details: for Inhibition % (Mtb ThyX) / inhibition at 200 µM: 200 μM compound
T1 sequence (P9WG57 whole entry): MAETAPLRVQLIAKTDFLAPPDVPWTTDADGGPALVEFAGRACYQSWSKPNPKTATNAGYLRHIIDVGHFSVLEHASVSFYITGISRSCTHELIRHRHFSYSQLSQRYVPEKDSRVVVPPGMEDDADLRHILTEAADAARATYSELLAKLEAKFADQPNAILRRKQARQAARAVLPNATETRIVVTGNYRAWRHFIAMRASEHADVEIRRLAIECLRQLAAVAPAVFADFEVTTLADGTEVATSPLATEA

[3] = biological target: T1, Mtb ThyX; assay: M. tuberculosis ThyX tritium release assay; assay type: biochemical; details: 200 µM compound; for ThyX inhibition, tritium release assay: 200 µM
[4] = system: viral pathogens; assay: Evaluation on viral pathogens
[5] = in vitro; assay type: cell-based; details: human
Procedure: Assays were performed in human peripheral blood mononuclear (PBM) cells via MTS assay using the CellTiter 96® Non-Radioactive Cell Proliferation (Promega) kit. Cytotoxicity was expressed as the concentration of test compounds that inhibited cell growth by 50% (CC50).

[6] = 50 µM inhibitor concentration, read-out: ThyX inhibition at 50 µM of inhibitors
[7] = NADPH oxidase assay, 50 µM FAD, read-out: Inhibition % (Mtb ThyX)
[8] = absence of added FAD, read-out: ThyX inhibition without FAD addition

## CCCCCCCC(=O)NCC#Cc1cn(C2CC(O)C(COP(=O)(O)O)O2)c(=O)[nH]c1=O (stereo not drawn) [Compound 3]
[1]; C5-modified dUMP analogs, read-out: IC50
  IC50: 910 nM

## CCOC(=O)[C@@H]1CSC(c2ccccc2)N1C(=O)c1cn(CCCNC(=O)C(F)(F)F)nn1 (stereo partly drawn) [Compound 1]
[1]; read-out: IC50 against ThyX
  IC50: 57 nM

## O=c1[nH]c2c(nc3ccccn32)c(=O)n1-c1ccc(F)cc1 [Compound 9a, 3-(4-Fluorophenyl)pyrido [1,2-e]purine-2,4(1H,3H)-dione]
[2]; [6]
  inhibition at 50 µM: 18.4%
[2]; NADPH oxidase assay, 50 µM FAD
  Inhibition % (Mtb ThyX): 59.4%
[2]; [7]
  inhibition at 200 µM: 59.5%
[2]; [8]
  inhibition at 200 µM: 76.1%
[2]; calculated for 9a
  IC50: 95000 nM
[3]
  inhibition at 200 µM: 59.5%
[4]
  activity on viral pathogens: some promiscuous activity
[4]; evaluation on viral pathogens
  toxicity: without toxicity

## Cc1cc(N2CCN(C(=O)CCN3C(=O)COc4ccccc43)CC2)nc(C(C)C)n1 [Compound B1-PP146, reference compound]
[2]; positive control, value at 50 μM, NADPH oxidase assay, read-out: Inhibition % (Mtb ThyX)
  inhibition at 50 µM: 95.1%
[1]; read-out: IC50 against ThyX
  IC50: 690 nM

## O=c1[nH]c2c(nc3cc(-c4ccc(F)cc4)ccn32)c(=O)n1-c1ccc(F)cc1 [Compound 22e, 3,7-Bis(p-fluorophenyl)-1H-purino [9,8-a]pyridine-2,4-dione]
[2]; [7]
  inhibition at 200 µM: ≤ 28%

## O=c1[nH]c2c(nc3ccccn32)c(=O)n1-c1ccc(F)cc1F [Compound 9i, 3-(2,4-Difluorophenyl)pyrido [1,2-e]purine-2,4(1H,3H)-dione]
[2]; [7]
  inhibition at 200 µM: 6.6%

## O=c1[nH]c2c(nc3ccc(-c4ccccc4)cn32)c(=O)n1-c1ccc(F)cc1 [Compound 23a, 3-(p-Fluorophenyl)-8-phenyl-1H-purino [9,8-a]pyridine-2,4-dione]
[2]; [7]
  inhibition at 200 µM: 84.3%
[5]
  CC50: > 100000 nM

## O=c1c2nc3ccccn3c2[nH]c(=S)n1Cc1ccccc1 [Compound 12, 3-Benzyl-2-thioxo-2,3-dihydropyrido [1,2-e]purin-4(1H)-one]
[2]; [7]
  inhibition at 200 µM: 0%

## O=c1[nH]c2c(nc3ccccn32)c(=O)n1Cc1ccccc1 [Compound 10a, 3-(Benzyl)pyrido [1,2-e]purine-2,4(1H,3H)-dione]
[2]; [7]
  inhibition at 200 µM: 22.3%

## 1-[[p-(Dimethoxyphosphorylmethyl)phenyl]methyl]-3-(4-fluorophenyl)purino [9,8-a]pyridine-2,4-dione [Compound 13f]
[2]; NADPH oxidase assay, 50 µM FAD
  Inhibition % (Mtb ThyX): 5.6%

## O=c1[nH]c2c(nc3cc(C#CCCc4ccccc4)ccn32)c(=O)n1-c1ccc(F)cc1 [Compound 20a, 3-(p-Fluorophenyl)-7-(4-phenylbut-1-ynyl)-1H-purino [9,8-a]pyridine-2,4-dione]
[2]; [7]
  inhibition at 200 µM: 32%

## CCCc1ccc(C#Cc2ccn3c(c2)nc2c(=O)n(-c4ccc(F)cc4)c(=O)[nH]c23)cc1 [Compound 20b, 3-(p-Fluorophenyl)-7-[2-(4-propylphenyl)ethynyl]-1H-purino [9,8-a]pyridine-2,4-dione]
[2]; [7]
  inhibition at 200 µM: 0%

## COc1ccc(-c2ccn3c(c2)nc2c(=O)n(-c4ccc(F)cc4)c(=O)[nH]c23)cc1 [Compound 22c, 3-(p-Fluorophenyl)-7-(p-methoxyphenyl)-1H-purino [9,8-a]pyridine-2,4-dione]
[2]; [7]
  inhibition at 200 µM: ≤ 28%

## O=c1[nH]c2c(nc3cc(Br)ccn32)c(=O)n1-c1ccc(F)cc1 [Compound 19a, 7-Bromo-3-(p-fluorophenyl)pyrido [1,2-e]purine-2,4(1H,3H)-dione]
[2]; [7]
  inhibition at 200 µM: 8.8%

## Cc1ccc(-n2c(=O)[nH]c3c(nc4ccccn43)c2=O)cc1 [Compound 9d, 3-(p-Tolyl)pyrido [1,2-e]purine-2,4(1H,3H)-dione]
[2]; [6]
  inhibition at 50 µM: 2.6%
[2]; NADPH oxidase assay, 50 µM FAD
  Inhibition % (Mtb ThyX): 55.4%
[2]; [7]
  inhibition at 200 µM: 55%
[2]; [8]
  inhibition at 200 µM: 20.4%
[3]
  inhibition at 200 µM: 69.2%
  ThyX inhibition, tritium release assay: 77.1%

## Cc1ccn2c(c1)nc1c(=O)n(-c3ccc(F)cc3)c(=O)[nH]c12 [Compound 18a, 3-(p-Fluorophenyl)-7-methylpyrido [1,2-e]purine-2,4(1H,3H)-dione]
[2]; [7]
  inhibition at 200 µM: 45.8%

## N#Cc1ccc(Cn2c(=O)n(-c3ccc(F)cc3)c(=O)c3nc4ccccn4c32)cc1 [Compound 13c, 4-[[3-(p-Fluorophenyl)-2,4-dioxo-purino[9,8-a]pyridin-1-yl]methyl]benzonitrile]
[2]; [7]
  inhibition at 200 µM: 26.5%

## O=c1[nH]c2c(nc3ccc(Br)cn32)c(=O)n1-c1ccc(F)cc1 [Compound 19b, 8-Bromo-3-(p-fluorophenyl)pyrido [1,2-e]purine-2,4(1H,3H)-dione]
[2]; [7]
  inhibition at 200 µM: 5.4%

## Cc1ccc(Cn2c(=O)n(-c3ccc(F)cc3)c(=O)c3nc4ccccn4c32)cc1 [Compound 13b, 3-(p-Fluorophenyl)-1-[(p-methylphenyl)methyl]purino[9,8-a]pyridine-2,4-dione]
[2]; [7]
  inhibition at 200 µM: 10.9%

## O=c1[nH]c2c(nc3ccccn32)c(=O)n1-c1ccc(Cl)cc1 [Compound 9b, 3-(4-Chlorophenyl)pyrido [1,2-e]purine-2,4(1H,3H)-dione]
[2]; [6]
  inhibition at 50 µM: 2.2%
[2]; [7]
  inhibition at 200 µM: 49.8%
[2]; [8]
  inhibition at 200 µM: 12.6%
[3]
  inhibition at 200 µM: 77.1%
  ThyX inhibition, tritium release assay: 69.2%

## 3-(p-Fluorophenyl)-8-hept-1-ynyl-1H-purino [9,8-a]pyridine-2,4-dione [Compound 20d]
[2]; NADPH oxidase assay, 50 µM FAD
  Inhibition % (Mtb ThyX): 0%

## O=C1C(O)=C(c2ccco2)C(=O)c2ccccc21 [Compound 2]
[1]; read-out: inhibitory Ki against ThyX
  Ki: 28 nM

## O=c1[nH]c2c(nc3ccc(-c4ccc(F)cc4)cn32)c(=O)n1-c1ccc(F)cc1 [Compound 23e, 3,8-Bis(p-Fluorophenyl)-1H-purino [9,8-a]pyridine-2,4-dione]
[2]; [7]
  inhibition at 200 µM: 43.1%

## O=c1[nH]c2c(nc3ccccn32)c(=O)n1Cc1ccc(F)cc1 [Compound 10b, 3-(p-Fluorobenzyl)pyrido [1,2-e]purine-2,4(1H,3H)-dione]
[2]; [7]
  inhibition at 200 µM: 21.2%
